Like-named read-outs stand apart in the source and are kept apart here.
System: recombinant Escherichia coli KO11
Experiment: Batch fermentation of E. coli KO11 in 1% CSL medium and glucose with nutrient additives: ethanol production and cell growth
Type: cell-based
Conditions: for Ethanol Production Maximum / Ethanol yield / Initial Growth (OD @ 24 h) OD / Maximum Cell Density OD / Volumetric Productivity Average / Volumetric Productivity Maximum: 1% CSL+glucose; for activity at 500 µg/mL / activity at 250 µg/mL / activity at 750 µg/mL: Escherichia coli

## CC=O [Acetaldehyde, acetaldehyde]
1% CSL and glucose, 0.25 g/L at the start
  initial growth and maximum cell density as compared to a control: greatest initial growth and maximum cell density
1% CSL and glucose, 0.75 g/L at the start
  ethanol production as compared to the control: highest amount of ethanol production
0.25 g/L at start
  Ethanol Production Maximum: 40.31 g/L
  Ethanol yield: 0.415 grams of ethanol/grams of added sugar
  Initial Growth (OD @ 24 h) OD: 3.00 OD
  Maximum Cell Density OD: 3.17 OD
  Volumetric Productivity Average: 0.560 grams ethanol/(liter)(hour)
  Volumetric Productivity Maximum: 0.678 grams ethanol/(liter)(hour)
0.5 + 0.25 g/L (start, 8 h)
  Ethanol Production Maximum: 40.25 g/L
  Ethanol yield: 0.414 grams of ethanol/grams of added sugar
  Initial Growth (OD @ 24 h) OD: 2.64 OD
  Maximum Cell Density OD: 2.99 OD
  Volumetric Productivity Average: 0.419 grams ethanol/(liter)(hour)
  Volumetric Productivity Maximum: 0.598 grams ethanol/(liter)(hour)
0.5 + 0.5 g/L (start, 8 h)
  Ethanol Production Maximum: 40.03 g/L
  Ethanol yield: 0.412 grams of ethanol/grams of added sugar
  Initial Growth (OD @ 24 h) OD: 2.74 OD
  Maximum Cell Density OD: 3.09 OD
  Volumetric Productivity Average: 0.417 grams ethanol/(liter)(hour)
  Volumetric Productivity Maximum: 0.659 grams ethanol/(liter)(hour)
0.5 g/L at start
  Ethanol Production Maximum: 39.95 g/L
  Ethanol yield: 0.411 grams of ethanol/grams of added sugar
  Initial Growth (OD @ 24 h) OD: 2.77 OD
  Maximum Cell Density OD: 2.96 OD
  Volumetric Productivity Average: 0.416 grams ethanol/(liter)(hour)
  Volumetric Productivity Maximum: 0.615 grams ethanol/(liter)(hour)
0.75 g/L at start
  Ethanol Production Maximum: 43.44 g/L
  Ethanol yield: 0.447 grams of ethanol/grams of added sugar
  Initial Growth (OD @ 24 h) OD: 2.47 OD
  Maximum Cell Density OD: 2.81 OD
  Volumetric Productivity Average: 0.452 grams ethanol/(liter)(hour)
  Volumetric Productivity Maximum: 0.699 grams ethanol/(liter)(hour)
8 h, read-out: Ethanol Production Maximum % Control, 1% CSL+glucose, 0.5 + 0.25 g/L (start, 8 h)
  activity at 500 µg/mL: 109%
8 h, read-out: Ethanol Production Maximum % Control, 1% CSL+glucose, 0.5 + 0.5 g/L (start, 8 h)
  activity at 500 µg/mL: 108%
8 h, read-out: Maximum Cell Density % Control, 1% CSL+glucose, 0.5 + 0.25 g/L (start, 8 h)
  activity at 500 µg/mL: 111%
8 h, read-out: Maximum Cell Density % Control, 1% CSL+glucose, 0.5 + 0.5 g/L (start, 8 h)
  activity at 500 µg/mL: 115%
8 h, read-out: Volumetric Productivity Average % Control, 1% CSL+glucose, 0.5 + 0.25 g/L (start, 8 h)
  activity at 500 µg/mL: 109%
8 h, read-out: Volumetric Productivity Average % Control, 1% CSL+glucose, 0.5 + 0.5 g/L (start, 8 h)
  activity at 500 µg/mL: 108%
8 h, read-out: Volumetric Productivity Maximum % Control, 1% CSL+glucose, 0.5 + 0.25 g/L (start, 8 h)
  activity at 500 µg/mL: 116%
8 h, read-out: Volumetric Productivity Maximum % Control, 1% CSL+glucose, 0.5 + 0.5 g/L (start, 8 h)
  activity at 500 µg/mL: 128%
24 h, read-out: Initial Growth (OD @ 24 h) % Control, 1% CSL+glucose, 0.25 g/L at start
  activity at 250 µg/mL: 112%
24 h, read-out: Initial Growth (OD @ 24 h) % Control, 1% CSL+glucose, 0.5 + 0.25 g/L (start, 8 h)
  activity at 500 µg/mL: 98.9%
24 h, read-out: Initial Growth (OD @ 24 h) % Control, 1% CSL+glucose, 0.5 + 0.5 g/L (start, 8 h)
  activity at 500 µg/mL: 103%
24 h, read-out: Initial Growth (OD @ 24 h) % Control, 1% CSL+glucose, 0.5 g/L at start
  activity at 500 µg/mL: 104%
24 h, read-out: Initial Growth (OD @ 24 h) % Control, 1% CSL+glucose, 0.75 g/L at start
  activity at 750 µg/mL: 92.5%
read-out: Ethanol Production Maximum % Control, 1% CSL+glucose, 0.25 g/L at start
  activity at 250 µg/mL: 109%
read-out: Ethanol Production Maximum % Control, 1% CSL+glucose, 0.5 g/L at start
  activity at 500 µg/mL: 108%
read-out: Ethanol Production Maximum % Control, 1% CSL+glucose, 0.75 g/L at start
  activity at 750 µg/mL: 117%
read-out: Maximum Cell Density % Control, 1% CSL+glucose, 0.25 g/L at start
  activity at 250 µg/mL: 118%
read-out: Maximum Cell Density % Control, 1% CSL+glucose, 0.5 g/L at start
  activity at 500 µg/mL: 110%
read-out: Maximum Cell Density % Control, 1% CSL+glucose, 0.75 g/L at start
  activity at 750 µg/mL: 105%
read-out: Volumetric Productivity Average % Control, 1% CSL+glucose, 0.25 g/L at start
  activity at 250 µg/mL: 145%
read-out: Volumetric Productivity Average % Control, 1% CSL+glucose, 0.5 g/L at start
  activity at 500 µg/mL: 108%
read-out: Volumetric Productivity Average % Control, 1% CSL+glucose, 0.75 g/L at start
  activity at 750 µg/mL: 117%
read-out: Volumetric Productivity Maximum % Control, 1% CSL+glucose, 0.25 g/L at start
  activity at 250 µg/mL: 132%
read-out: Volumetric Productivity Maximum % Control, 1% CSL+glucose, 0.5 g/L at start
  activity at 500 µg/mL: 120%
read-out: Volumetric Productivity Maximum % Control, 1% CSL+glucose, 0.75 g/L at start
  activity at 750 µg/mL: 136%

From patent US20020137154A1, “Methods for improving cell growth and alcohol production during fermentation” (priority 2000, published 2002)
